“And” between values parts separate entries of the source, which are not always exact repeats. Equal values may be shown once. Read-outs that look alike come from different tables or passages of the source. Marks after values point to notes of the source that are not given here.
Key:
[1] = cited from earlier work; for log DMW, membrane-water distribution ratio: marked * = measured, used for IVIVE, same values as Table 3
rainbow trout = assay: In vivo bioconcentration experiment with a mixture of anionic surfactants, flow-through aquaria, 10 °C, pH 7.8; settings: for Log BCF: determined with measured concentrations in water; for Concentration in fish: individual fish; for diffusion coefficient (D) in the epithelial membrane of the gills: in vivo; for BCF (kinetic): kinetic BCF from measured concentrations in water;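 for Uptake rate constant kU: L kg-1 h-1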
Procedure: The bioconcentration of a mixture of 10 anionic surfactants was measured in rainbow trout in water at pH 7.8. […] The experiment was conducted in flow-through aquaria with juvenile rainbow trout at 10 °C. Ethical approval for the experiments was obtained from Stockholms […] (decision 9967-2017). The fish, fish housing, fish handling, and procedure for introducing the mixture of […] chemicals were very similar to our previous study with cationic surfactants;[5] details are provided in Text S1. The experiment consisted of a 4-day exposure phase and a 7-day depuration phase. […] Water samples were collected and fish were sacrificed according to the schedule in Table S4. The water samples were collected just prior to the daily removal of feces from the aquarium. Triplicate samples were taken at each time point. […] The water/methanol mixture was analyzed using liquid chromatography-mass spectrometry (LC-MS)/MS as described below for fish. At each fish sampling, five fish were sacrificed. Following stunning and severance of the spinal cord, the whole fish were placed in a polyethylene bag, weighed, and immediately frozen at -20 °C. The weight of the individual fish at sacrifice was 24.0 ± 5.6 g. Three of the five fish from each time point were prioritized for analysis based on proximity to the median fish weight. Each fish was […] homogenized with an Ultra-turrax dispersing device. […] This mixture was homogenized in a bullet blender for 5 min and then placed in an ultrasound bath at 45 °C for 15 min. Following centrifugation for 15 min@3200 RCF, the supernatant was decanted and the extraction was repeated. The extracts were combined. For instrumental analysis, 5 μL of the fish extract or 60 μL of the water/methanol mixture (water samples) was separated on an Acquity UPLC BEH C18 column fitted with a BEH C18 pre-column and analyzed on a TSQ Quantiva triple quadrupole mass spectrometer. The mobile phase was methanol (10 mM ammonium acetate) and Milli-Q-filtered water (10 mM ammonium acetate) (see Table S5 for the liquid chromatography program). To avoid detergent blank peaks originating from cleaning mobile phase bottles, the methanol was prepared directly in the solvent bottle as delivered and Milli-Q was tapped into an empty methanol bottle. Furthermore, a guard column was fitted between the mobile phase and the autosampler to prevent background contamination from disturbing the analysis. All analytes were quantified against the BEHP internal standard, as it gave better reproducibility. […] The central goal of the analysis was to estimate kU and kT as well as the BCF (=kU/kT) from measurements of surfactant concentration in fish and water samples collected at different time points of the experiment. For the fish, only those time points were included for which CF(measured) was above the limit of quantitation (LOQ) in all three fish (data below the LOQ will have a positive bias; including them would result in a negative bias in kT). In this analysis, there exist two sources of uncertainty: first, uncertainty in the actual concentration in water CW at the time of sample collection and second, variability in the concentration in fish around the (expected) surfactant concentrations in fish assumed to follow model (1). We therefore set up a model in which we considered uncertainty in both water and fish measurements simultaneously by assuming a parametric model for the surfactant concentration in the water over time (either linear or quadratic) and accounted for the uncertainty in the corresponding parameters of the water model during the estimation of kU and kT. This was done in a joint Bayesian model that we estimated via Hamiltonian Monte Carlo. […]

[2] = Baseline screening BCF (0.0125 DMLW, equilibrium partitioning, no biotransformation); settings: for Log baseline BCF: determined as 0.0125 DMLW
Excerpt: Recently, the concept of a baseline screening BCF was introduced for surfactants, based on equilibrium partitioning assuming no biotransformation.[19] The baseline screening BCF for the study chemicals exceeded the measured BCF by 1–2.5 orders of magnitude (Table S16), providing further evidence that biotransformation is an important factor influencing the elimination—and thereby the BCF—of the anionic surfactants studied here in rainbow trout. The deviation of PFOA and PFOS from the regression between BCF and DMLW (Figure 1, upper panel) is attributable to them not being biotransformed.
Table S16: Comparison of the BCF (determined with the measured concentrations in water) and the baseline screening BCF (determined as 0.0125 DMLWa)
CHEMICAL Log BCF Log baseline BCF Log difference […]
a Droge, S. T. J.; Scherpenisse, P.; Arnot, J. A.; Armitage, J. M.; McLachlan, M. S.; Nichols, J.; von der Ohe, P.; Bonnell, M.; Hodges, G. Screening the baseline fish bioconcentration potential of various types of surfactants using phospholipid binding data. Environ. Sci.: Processes Impacts

[3] = determined using nominal concentrations in water
[4] = from measured concentrations in water, Bayesian estimate, 95% credible interval in brackets
[5] = 95% credible interval in brackets
[6] = measured concentrations in water, simpler estimation method (Text S3), 95% confidence intervals in brackets

| Compound | log DMW, membrane-water distribution ratio [1] | BCF (rainbow trout; [3]) | Elimination rate constant kT (rainbow trout; [3]) | Uptake rate constant kU (rainbow trout; [3]) | Log BCF (rainbow trout) | Concentration in fish (rainbow trout; elimination phase, 97 h) | Concentration in fish (rainbow trout; elimination phase, 98 h) | Concentration in fish (rainbow trout; elimination phase, 100 h) | Concentration in fish (rainbow trout; elimination phase, 103 h) | Concentration in fish (rainbow trout; elimination phase, 120 h) | Concentration in fish (rainbow trout; elimination phase, 128 h) | Concentration in fish (rainbow trout; elimination phase, 144 h) | Concentration in fish (rainbow trout; elimination phase, 168 h) | Concentration in fish (rainbow trout; elimination phase, 192 h) | Concentration in fish (rainbow trout; elimination phase, 264 h) | Concentration in fish (rainbow trout; exposure phase, 1 h) | Concentration in fish (rainbow trout; exposure phase, 2 h) | Concentration in fish (rainbow trout; exposure phase, 3 h) | Concentration in fish (rainbow trout; exposure phase, 4 h) | Concentration in fish (rainbow trout; exposure phase, 6 h) | also measured |
| --- | --- | --- | --- | --- | --- | --- | --- | --- | --- | --- | --- | --- | --- | --- | --- | --- | --- | --- | --- | --- | --- |
| CCCCCCCCCCCCOCCOCCOCCOCCOS(=O)(=O)O [C12-EO4-SO4, dodecyltetraethoxysulfate] | 4.24 | 1.42 L kg-1 ww | 0.114 h⁻¹ | 0.162 L/kg/h | -0.05 L kg-1 ww | 35 ng g-1 ww and 26 ng g-1 ww and 27 ng g-1 ww | 17.6 ng g-1 ww and 19.9 ng g-1 ww and 15.8 ng g-1 ww | 35.9 ng g-1 ww and 14.4 ng g-1 ww and 21 ng g-1 ww | 11.6 ng g-1 ww and 16.1 ng g-1 ww and 15.1 ng g-1 ww | 7.0 ng g-1 ww and 8.6 ng g-1 ww and 3.1 ng g-1 ww | 5.5 ng g-1 ww and 7.5 ng g-1 ww and 4.5 ng g-1 ww | 4.7 ng g-1 ww and 5.3 ng g-1 ww and 4.5 ng g-1 ww | 4.1 ng g-1 ww and 2.7 ng g-1 ww and 1.8 ng g-1 ww | 1.6 ng g-1 ww and 3.6 ng g-1 ww and 1.8 ng g-1 ww | 3.3 ng g-1 ww and 2.4 ng g-1 ww and 1.5 ng g-1 ww | 4.3 ng g-1 ww and 6.7 ng g-1 ww and 6.6 ng g-1 ww | 6.7 ng g-1 ww and 8.9 ng g-1 ww and 6.4 ng g-1 ww | 12.1 ng g-1 ww and 10.4 ng g-1 ww and 10.6 ng g-1 ww | 14.5 ng g-1 ww and 16.2 ng g-1 ww and 14.2 ng g-1 ww | 23 ng g-1 ww and 18.6 ng g-1 ww and 13.5 ng g-1 ww | log DMLW ([1]; measurement from Droge et al.): 4.24 ^f L kg^–1; Concentration in fish (rainbow trout; exposure phase, 24 h): 24 ng g-1 ww and 34 ng g-1 ww and 23 ng g-1 ww; Concentration in fish (rainbow trout; exposure phase, 48 h): 26 ng g-1 ww and 33 ng g-1 ww and 38 ng g-1 ww; Concentration in fish (rainbow trout; exposure phase, 72 h): 30 ng g-1 ww and 39 ng g-1 ww and 35 ng g-1 ww; Concentration in fish (rainbow trout; exposure phase, 96 h): 45 ng g-1 ww and 27 ng g-1 ww and 42 ng g-1 ww; Elimination rate constant kT (rainbow trout; [4]): 0.100 (0.083–0.120) h^–1; Uptake rate constant kU (rainbow trout; [4]): 0.090 (0.074–0.109) L kg^–1 ww h^–1; diffusion coefficient (D) in the epithelial membrane of the gills (rainbow trout): 2.0 × 10^–8 m h^–1; BCF (kinetic) (rainbow trout; [5]): 0.89 (0.80–1.01) L kg^–1 ww; BCF (rainbow trout; [6]): 0.92 (29) L kg-1 ww; Elimination rate constant kT (rainbow trout; [6]): 0.098 (26) h-1; Uptake rate constant kU (rainbow trout; [6]): 0.090 (12) L kg-1 ww h-1; Log difference (baseline BCF vs BCF) [2]: 2.38 L kg-1 ww; Log baseline BCF [2]: 2.34 L kg-1 ww |
| CCCCCCCCCCCCCS(=O)(=O)O [C13SO3, tridecylsulfonate] | 4.46 | 3.9 L kg-1 ww | 0.065 h⁻¹ | 0.25 L/kg/h | 0.65 L kg-1 ww | 15.7 ng g-1 ww and 14.6 ng g-1 ww and 19.2 ng g-1 ww | 14.6 ng g-1 ww and 12.4 ng g-1 ww and 14.8 ng g-1 ww | 33 ng g-1 ww and 10.3 ng g-1 ww and 12.1 ng g-1 ww | 10.0 ng g-1 ww and 23 ng g-1 ww and 11.1 ng g-1 ww | 6.4 ng g-1 ww and 4.3 ng g-1 ww and 2.9 ng g-1 ww | 2.8 ng g-1 ww and 2.3 ng g-1 ww and 4.9 ng g-1 ww | 1.63 ng g-1 ww and 1.18 ng g-1 ww and 1.59 ng g-1 ww | 0.83 ng g-1 ww and 1.89 ng g-1 ww and 0.64 ng g-1 ww | 0.40 ng g-1 ww and 0.33 ng g-1 ww and 0.60 ng g-1 ww | 0.30 ng g-1 ww and 0.13 ng g-1 ww and 0.02 ng g-1 ww | 15.3 ng g-1 ww and 2.5 ng g-1 ww and 35 ng g-1 ww | 3.2 ng g-1 ww and 3.0 ng g-1 ww and 2.3 ng g-1 ww | 4.7 ng g-1 ww and 5.8 ng g-1 ww and 4.5 ng g-1 ww | 8.1 ng g-1 ww and 54 ng g-1 ww and 202 ng g-1 ww | 10.5 ng g-1 ww and 10.3 ng g-1 ww and 8.5 ng g-1 ww | log DMLW ([1]; measurement from Droge): 4.46 ^e L kg^–1; Concentration in fish (rainbow trout; exposure phase, 24 h): 24 ng g-1 ww and 21 ng g-1 ww and 17.0 ng g-1 ww; Concentration in fish (rainbow trout; exposure phase, 48 h): 19.4 ng g-1 ww and 20 ng g-1 ww and 17.1 ng g-1 ww; Concentration in fish (rainbow trout; exposure phase, 72 h): 30 ng g-1 ww and 16.7 ng g-1 ww and 15.0 ng g-1 ww; Concentration in fish (rainbow trout; exposure phase, 96 h): 22 ng g-1 ww and 19.7 ng g-1 ww and 28 ng g-1 ww; Elimination rate constant kT (rainbow trout; [4]): 0.057 (0.052–0.062) h^–1; Uptake rate constant kU (rainbow trout; [4]): 0.25 (0.22–0.29) L kg^–1 ww h^–1; diffusion coefficient (D) in the epithelial membrane of the gills (rainbow trout): 3.5 × 10^–8 m h^–1; BCF (kinetic) (rainbow trout; [5]): 4.5 (4.1–5.0) L kg^–1 ww; BCF (rainbow trout; [6]): 4.3 (12) L kg-1 ww; Elimination rate constant kT (rainbow trout; [6]): 0.057 (7) h-1; Log difference (baseline BCF vs BCF) [2]: 1.90 L kg-1 ww; Log baseline BCF [2]: 2.56 L kg-1 ww |
